Results from patent publication US20250042925A1, “Improved Compositions and Methods for Targeting Mitochondria in Cancer Cells” (The Medical College of Wisconsin, Inc., priority 2021, published 2025).

How the values were obtained:
[1] = tested on: HPSC cells; assay: TMRE retention (mitochondrial depolarization) by flow cytometry in HPSC; type: cell-based, human; conditions: HPSC cell line, 1 hour treatment
Procedure: AsPC-1 and HPSC cells were serum-starved overnight, loaded with tetramethylrhodamine ethyl ester (TMRE), and treated for 1 hour with the indicated concentrations of MMe or pCF3-MMe or, as the vehicle control, DMSO. Mitochondrial TMRE retention was measured by flow cytometry. Representative histograms of n=3 of TMRE fluorescence in AsPC-1 (FIG. 4A) and HPSC (FIG. 4B) in response to treatment. […] Total cellular ATP levels were analyzed using a luminescent ATP detection assay of KPC1242 cells treated with MMe (0.7 μM) or pCF3-MMe (3 μM), and changes in ATP levels were assayed (FIG. 4E). Representatives immunoblot analyses of phosphorylated and total AMPK levels (FIG. 4F) and densitometric quantification (FIG. 4G) in KPC1242 cells treated with MMe (0.7 μM) or pCF3-MMe (3 μM). […] Values are mean±SD from 3 biological replicates. Statistical differences in a, c, and e were determined using Student's t-test (*, p<0.05; **, p<0.01; ***, p<0.001, ns: not significant).
TPP-conjugated compounds are known to effectively target the mitochondria of cancer cells. Thus, the efficacy of pCF3-MMe to effectively target the mitochondria of cancer cells was tested and compared to normal cells using tetramethylrhodamine ethyl ester perchlorate (TMRE), a cell-permeant, positively-charged dye that accumulates in active mitochondria, and is released into the cytosol upon mitochondrial damage. […]

[2] = tested on: pancreatic, breast, and colon cancers; conditions: cited from earlier work
[3] = tested on: KPC1242 cells; assay: Seahorse Cell Mito Stress Test (oxygen consumption rate); type: cell-based, murine; conditions: 24 hours treatment, increasing concentrations
Procedure: To determine if the newly synthesized variants retain this functional specificity, further studies were conducted to determine if pCF3-MMe effectively impacts mitochondrial function and/or induces bioenergetic stress. KPC1242 cells were treated for 24 hours with increasing concentrations of MMe or pCF3-MMe, and oxygen consumption rate (OCR) was measured as a surrogate for oxidative phosphorylation linked mitochondrial respiration.
Cells were plated to Seahorse XF96 cell culture microplates at 20,000 cells/well. Stock compounds in DMSO were diluted in RPMI medium to a final concentration in […] volume, incubated at 37° C. for 24 hours, centrifuged at 200×g for 2 minutes, and conditioned medium removed and replaced with serum-free RPMI […]. Oxygen consumption (OCR) and extracellular flux (ECAR) were measured after injections of oligomycin (1 mg/mL), dinitrophenol […], rotenone […], and antimycin A […]. Analysis was performed by normalizing OCR and ECAR readouts to vehicle controls. Complex I and II activity were analyzed after permeabilization of the cells.

[4] = tested on: AMP-Activated Protein Kinase (AMPK); assay: Immunoblot of AMPK Thr172 phosphorylation; type: cell-based, murine; conditions: 0.7 μM MMe or 3 μM pCF3-MMe
Procedure: The functional consequence of inhibiting mitochondria complex I and subsequently OXPHOS is a reduction of overall ATP levels in the cell. The ability of MMe to reduce ATP levels was previously reported in numerous cancer cell types. Thus, further studies were conducted to explore if pCF3-MMe retained similar properties. […] Cells, including cancer cells, must maintain a high ATP:ADP ratio to maintain cellular functions and survival. Moreover, AMP levels rise whenever the ATP:ADP ratio decreases, and an increase in the AMP:ATP ratio signals an energetic crisis in the cell. […]
Cells were serum-starved for 24 hours followed by compound treatment for 24 hours before lysis in RIPA buffer composed of 50 mM Tris-HCl, pH 7.4, 150 mM NaCl, 0.25% v/v sodium deoxycholate, 1% v/v Nonidet P-40, 0.1% v/v SDS, 1 mM EDTA, 10 mM sodium orthovanadate, 40 mM 0-glycerol phosphate, 20 mM sodium fluoride, and protease inhibitors cocktail set III (Millipore Sigma, Cat #539134). […] Primary antibodies were detected by incubating with secondary horseradish peroxidase-conjugated antibody (Cytiva, Amersham ECL rabbit IgG-HRP, Cat #NA9340). Densitometric quantification of phosphorylated, total or actin protein levels was measured using chemiluminescence and calculated using Alpha View Software.

[5] = tested on: KPC1242 cells; assay: Luminescent ATP detection assay; type: cell-based, murine; conditions: 24 hours; 0.7 μM MMe or 3 μM pCF3-MMe
Procedure: The functional consequence of inhibiting mitochondria complex I and subsequently OXPHOS is a reduction of overall ATP levels in the cell. The ability of MMe to reduce ATP levels was previously reported in numerous cancer cell types. Thus, further studies were conducted to explore if pCF3-MMe retained similar properties. […] Cells, including cancer cells, must maintain a high ATP:ADP ratio to maintain cellular functions and survival. Moreover, AMP levels rise whenever the ATP:ADP ratio decreases, and an increase in the AMP:ATP ratio signals an energetic crisis in the cell. This energetic crisis is sensed by the master regulator AMP-Activated Protein Kinase (AMPK), which is activated through Thr172 phosphorylation and controls many signaling pathways ranging from energy metabolism to cellular growth. Therefore, further studies were conducted to evaluate if the reduction in ATP levels induced by MMe or pCF3-MMe is sufficient to activate AMPK.
Intracellular ATP levels were determined in cell lysates using a Luminescent ATP Detection Assay Kit per the manufacturer's directions (Abcam, Cambridge, UK, Cat #ab113849).

| Structure (SMILES) | TMRE accumulation within the mitochondria [1] | efficacy compared to metformin [2] | basal OCR, ATP-linked respiration, and maximal respiratory capacity [3] | AMPK activation (Thr172 phosphorylation) [4] | levels of ATP [5] |
| --- | --- | --- | --- | --- | --- |
| N=C(N)NC(=N)NCCCCCCCCCC[P+](c1ccccc1)(c1ccccc1)c1ccccc1.[Br-] [MMe, 10-[(carbamimidamidomethanimidoyl)amino]decyl-triphenylphosphonium bromide, reference compound] | did not affect TMRE accumulation | 100-1000 fold | concentration-dependent decrease | significant increase in AMPK activation | significantly reduced |
| N=C(N)NC(=N)NCCCCCCCCCC[P+](c1ccc(C(F)(F)F)cc1)(c1ccc(C(F)(F)F)cc1)c1ccc(C(F)(F)F)cc1.[Br-] [pCF3-MMe, (10-(3-carbamimidoylguanidino)decyl)tris(4-(trifluoromethyl)phenyl)phosphonium bromide] | did not affect TMRE accumulation | – | concentration-dependent decrease | significant increase in AMPK activation | significantly reduced |
